These results are taken from US10450327B2, “Epidithiodioxopiperazine compound or its derivatives, and the use thereof” (priority 2011, dated 2019).

Entries after “also recorded” stand apart in the source; their conditions may differ.

In one experiment the test system is HASMCs. In kind it is cell-based, human. Particulars: up to 100 nM (200 nM for A4, A7, A9).
A further experiment has as its system HAECs. The class given is cell-based, human. Conditions: up to 50 nM (100 nM for A4, A7, A9). As for the experimental part:
For cell proliferation assay, HAECs were divided at a concentration of 4000 cells/well in a final volume of 100 μl onto a 96-well plate including a siRNA-transfection reagent mixture. After siRNA-transfected for 24 hours, the cells were serum-starved for 18 hours, and then placed in an EBM-2 basal medium supplemented with VEGF-A165 (25 ng/ml, Cat no. 293-VE, R&D systems) for additional 24 hours. The extent of cell proliferation was measured using a WST-1 cell proliferation assay kit (Roche Diagnostics, USA), and the number of cells was expressed as absorbance at 450 nm, which was averaged from 3 wells after subtracting the turbidity at 600 nm.
The cell migration assay was performed in a 24-well Transwell culture chamber (Costar; 8-μm pore size). The bottom of the filter was coated with gelatin B (1 mg/ml) and air-dried for 1 hour. HAECs (6×10^3) were added to upper chambers including siRNA-transfection complexes. After 24 hours, the siRNA-transfected HAECs were serum-starved overnight. A solution of VEGF-A (25 ng/ml) was prepared in a basal medium including 0.5% bovine serum albumin (BSA), and added to bottom chambers. The upper chamber wells were each filled with a basal medium including 0.5% BSA. The Transwell chamber was incubated for 8 hours under the condition of 37° C./5% carbon dioxide. After the incubation, the non-migrated cells at the top of the filter were removed, and the cells that migrated onto the bottom of filter were fixed and stained with 0.6% hematoxylin and 0.5% eosin. The stained cells were photographed and counted. The number of migrating cells was averaged from 3 wells.

Experiment [1] relates to yeast thioredoxin (Trx) / yeast thioredoxin reductase (TR) system. As to the kind of experiment: Peroxidase activity assay (hydrogen peroxide reduction), Trx/TR system. In kind it is biochemical. The procedure: The peroxidase activity assay for the epidithiodioxopiperazine derivatives according to the present invention (hereinafter, referred to as ETP compounds) was performed according to known methods [Korean Patent No. 10-0953326]. A standard peroxidase reaction for spectrophotometric assay was carried out using a 200 μl reaction mixture of 1 mM EDTA-containing 50 mM Hepes-NaOH buffer solution (pH 7.0) including 250 μM NADPH, 3 μM yeast thioredoxin (Trx), 1.5 μM yeast thioredoxin reductase (TR), 25 μM ETP compound and […] of hydrogen peroxide. For the comparison with a glutathione (GSH)-dependent peroxidase reaction, GSH (1 mM) and yeast glutathione reductase (GSH reductase; GR) (1 Unit) were added instead of yeast Trx and TR. Each reaction was initiated by adding hydrogen peroxide, and the NADPH oxidation was monitored for 12 minutes at 30° C. according to absorbance decrease at 340 nm using an Agilent UV8453 spectrophotometer (Hewlett Packard, USA). The initial reaction rate was calculated using the linear portion of the curve and expressed as the amount of NADPH oxidized per minute.
The chemical feature of the epidithiodioxopiperazine compound of the present invention or its derivatives is the intramolecular disulfide bridge present in the epidithiodioxopiperazine ring moiety. Cellular peroxidase reduces hydrogen peroxide utilizing the electrons derived from NADPH via two electron-transfer routes, that is, Trx/TR or GSH/GR, therefore, spectrophotometric assay was performed for the hydrogen peroxide-reducing activity in the presence of each system, and the results are shown in FIGS. 1 to 5.

The subject of experiment [2] is balloon-injured rat carotid artery. As to the kind of experiment: Balloon-injury model of rat carotid artery. In kind it is in vivo. Conditions: local administration to the lumen through catheter, 30 minutes; ETP derivatives 200 nM; 10 days recovery. The procedure:
Animal experiments were performed in compliance with the guidelines of Institutional Animal Care and Use Committee (IACUC) of the Ewha Womans University. Balloon injury was created using an infiltrated 2 F Fogarty balloon catheter in the left common carotid artery as follows: after the ten-week-old male Sprague-Dawley rats were anaesthetized by isoflurane gas (N2O:O2/70%:30%) inhalation, the left external carotid artery was exposed, and its branches were electrocoagulated. A catheter was pushed 1 cm in through the transverse arteriotomy of the external carotid artery, and the endothelial denudation was achieved by three passes along the common carotid artery. After the catheter was removed, the punched area was sealed and the clapped common carotid artery was opened for resuming the blood flow. Unless otherwise stated, the rats were recovered in a cage for 10 days, and subjected to histological and immunological analyses.
Rats were anesthetized, and the common carotid artery was excised after transcardiac perfusion-fixation with a heparinized saline solution containing 3.7% formaldehyde. The vessels were paraffin embedded and sectioned using a rotary microtome (Leica RM2255). Two serial tissue sections (4 μm in thickness) were obtained from the middle area of common carotid arteries, and stained with haematoxylin and eosin (HE). The luminal, internal elastic laminal, and external elastic laminal areas were measured using NIH Image v1.62. The intimal and medial areas were determined by subtracting the luminal area from the internal elastic area and subtracting the internal elastic area from the external elastic area. The values from the two serial sections for each rat were averaged for analysis.
For the in vivo injection of siRNA, a siRNA mixture specific to rat PrxII (200 nM) was premixed with a siPORT™ NeoFX™ reagent according to the instructions of the manufacturer (Ambion). Immediately after the balloon injury, the siRNA-injected mixture (200 μL) was injected through a catheter after briefly washed with Opti-MEM. After the incubation for 15 minutes, the blood flow was resumed. A siGLO-Red (Dharmacon), which is fluorescent dye-conjugated control siRNA, was used for optimizing in vivo injection efficiency. Similarly, the ETP compound (200 nM in DMSO) was injected through a catheter and incubated for 30 minutes.
Immunohistochemistry for the overoxidized 2-Cys Prxs was performed on the paraffin sections using an anti-Prx-SO2/3 antibody (1:1000 dilution). Briefly, the sections were de-waxed in xylene and rehydrated in ethanol, and subsequently the antigen retrieval was performed by boiling in a citric buffer solution (pH 6.0). After that, the sections were incubated with a primary antibody for 48 hours at 4° C. After washing three times with a phosphatebuffered saline solution, the sections were incubated with a peroxidase-conjugated secondary antibody and stained with a 3′,3′-diaminobenzidine (DAB) substrate solution. For negative staining, the Prx-502/3 antibody was blocked with the corresponding antigenic peptide (DFTFVC(SO2/3)PTEI). For indirect immunofluorescence staining, the paraffin sections were blocked with 5% normal rabbit serum (Vector Laboratories) in PBST (a PBS solution of 0.3% Triton X-100) for 1 hour at room temperature. The sections were then incubated overnight at 4° C. with the […] against rat smooth muscle α-actin (1:300 dilution) and rat CD31 (PECAM-1, 1:200 dilution). The nuclei were labeled with DAPI. After several PBST washes, the samples were incubated for 2 hours at room temperature with Alexa Fluor 568-conjugated donkey anti-mouse and Alexa Fluor 488-conjugated donkey anti-rabbit IgG antibodies. The fluorescence images were recorded on three random fields per tissue section at a screen magnification of 100× using a LSM 510 Meta confocal microscope equipped with argon and helium-neon lasers.
The paraffin sections were incubated for 10 minutes in PBS containing 0.1% Triton X-100. […]

With `CN1C(=O)C2(C)SSC1C(=O)N2C` (centres unmarked) [Compound A3, 1,5,7-trimethyl-2,3-dithia-5,7-diazabicyclo[2.2.2]octane-6,8-dione], the “proliferation and chemotactic transmigration of HASMCs in response to PDGF, enhanced by PrxII knockdown” value in the experiment with HASMCs is given as “excellent activities”. The “VEGF-induced proliferation and chemotactic transmigration of HAECs, impaired by PrxII knockdown” value with HAECs was “excellent activities”.

As for `CN1C(=O)C(S)N(C)C(=O)C1S` (centres unmarked) [Compound A2R, 3,6-dimercapto-1,4-dimethylpiperazine-2,5-dione], in experiment [1], the “initial reaction rate for hydrogen peroxide reduction compared to the corresponding oxidized type” value is on record as “higher intial reaction rates”. In addition, the “proliferation and chemotactic transmigration of HASMCs in response to PDGF, enhanced by PrxII knockdown” value in the experiment on HASMCs is listed as “no significant changes”. Also, the “VEGF-induced proliferation and chemotactic transmigration of HAECs, impaired by PrxII knockdown” value with HAECs is given as “no significant changes”.

Take `COc1ccc(CN2C(=O)C3NC(=O)C2SS3)cc1` (centres unmarked) [Compound A6, 5-(4-methoxybenzyl)-2,3-dithia-5,7-diazabicyclo[2.2.2]octane-6,8-dione]: the “proliferation and chemotactic transmigration of HASMCs in response to PDGF, enhanced by PrxII knockdown” value with HASMCs is recorded as “moderate activities”. For the same compound, the “VEGF-induced proliferation and chemotactic transmigration of HAECs, impaired by PrxII knockdown” value with HAECs was “moderate activities”.

For the compound `CCCCN1C(=O)C2SSC1C(=O)N2CCCC` [Compound A8, 5,7-dibutyl-2,3-dithia-5,7-diazabicyclo[2.2.2]octane-6,8-dione], the “proliferation and chemotactic transmigration of HASMCs in response to PDGF, enhanced by PrxII knockdown” value with HASMCs is reported as “excellent activities”. Besides, the “VEGF-induced proliferation and chemotactic transmigration of HAECs, impaired by PrxII knockdown” value in the experiment on HAECs was “excellent activities”.

Regarding `CS[C@]1(CO)C(=O)N2[C@H]3C(=CC=C[C@@H]3O)C[C@@]2(SC)C(=O)N1C` [bis(methylthio)gliotoxin, Bis(methylthio)gliotoxin], the “intimal hyperplasia (ratio of intima versus media, HE staining)” value in experiment [2] is “did not suppress”. The “hydrogen peroxide-reducing (peroxidase) activity in the presence of a Trx/TR system, in words” value in experiment [1] is on record as “not observed”.

With `CN1C(=O)C2SSC1C(=O)N2C` [Compound A2, 5,7-dimethyl-2,3-dithia-5,7-diazabicyclo[2.2.2]-octane-6,8-dione], the “proliferation and chemotactic transmigration of HASMCs in response to PDGF, enhanced by PrxII knockdown” value with HASMCs is listed as “excellent activities”. Also, the “VEGF-induced proliferation and chemotactic transmigration of HAECs, impaired by PrxII knockdown” value in the experiment with HAECs was “excellent activities”.

For the compound `C=CCN1C(=O)C(S)N(CC=C)C(=O)C1S` (centres unmarked) [Compound A5R, 3,6-dimercapto-1,4-diallylpiperazine-2,5-dione], the “initial reaction rate for hydrogen peroxide reduction compared to the corresponding oxidized type” value in experiment [1] was “higher intial reaction rates”. The “proliferation and chemotactic transmigration of HASMCs in response to PDGF, enhanced by PrxII knockdown” value with HASMCs is on record as “no significant changes”. For the same compound, the “VEGF-induced proliferation and chemotactic transmigration of HAECs, impaired by PrxII knockdown” value in the experiment on HAECs is “no significant changes”.

Take `COc1ccc(CN2C(=O)C3SSC2C(=O)N3Cc2ccc(OC)cc2)cc1` [Compound A4, 5,7-bis(4-methoxybenzyl)-2,3-dithia-5,7-diazabicyclo[2.2.2]octane-6,8-dione]: in the experiment with HASMCs, the “proliferation and chemotactic transmigration of HASMCs in response to PDGF, enhanced by PrxII knockdown” value is given as “insignificant activities; also recorded: low activities”. Further, the “VEGF-induced proliferation and chemotactic transmigration of HAECs, impaired by PrxII knockdown” value with HAECs was “insignificant activities; also recorded: low activities”.

`COCCCN1C(=O)C2SSC1C(=O)N2CCCOC` [Compound A9, 5,7-bis(3-methoxypropyl)-2,3-dithia-5,7-diazabicyclo[2.2.2]octane-6,8-dione]: in the experiment with HASMCs, the “proliferation and chemotactic transmigration of HASMCs in response to PDGF, enhanced by PrxII knockdown” value is “insignificant activities; also recorded: moderate activities”. Moreover, the “VEGF-induced proliferation and chemotactic transmigration of HAECs, impaired by PrxII knockdown” value with HAECs is reported as “insignificant activities; also recorded: moderate activities”.

`O=C1NC2SSC1NC2=O` [Compound A1, 2,3-dithia-5,7-diazabicyclo[2.2.2]octane-6,8-dione]: in the experiment with HASMCs, the “proliferation and chemotactic transmigration of HASMCs in response to PDGF, enhanced by PrxII knockdown” value is “excellent activities”. For the same compound, the “VEGF-induced proliferation and chemotactic transmigration of HAECs, impaired by PrxII knockdown” value in the experiment with HAECs is recorded as “excellent activities”.

Turning to `C=CCN1C(=O)C2SSC1C(=O)N2CC=C` [Compound A5, 5,7-diallyl-2,3-dithia-5,7-diazabicyclo[2.2.2]octane-6,8-dione], the “proliferation and chemotactic transmigration of HASMCs in response to PDGF, enhanced by PrxII knockdown” value in the experiment on HASMCs was “excellent activities”. The “VEGF-induced proliferation and chemotactic transmigration of HAECs, impaired by PrxII knockdown” value in the experiment with HAECs was “excellent activities”.

As for `O=C1C2SSC(C(=O)N2C(c2ccccc2)c2ccccc2)N1C(c1ccccc1)c1ccccc1` [Compound A7, 5,7-dibenzhydryl-2,3-dithia-5,7-diazabicyclo[2.2.2]octane-6,8-dione], the “proliferation and chemotactic transmigration of HASMCs in response to PDGF, enhanced by PrxII knockdown” value in the experiment on HASMCs is given as “insignificant activities; also recorded: low activities”. Moreover, the “VEGF-induced proliferation and chemotactic transmigration of HAECs, impaired by PrxII knockdown” value with HAECs is listed as “insignificant activities; also recorded: low activities”.
